Experimental data from ChEMBL document CHEMBL3243934, “Synthesis and antiinflammatory activity of cis-4,5,6,7,8,8a,9-hexahydro-alpha-methyl-5H-fluorene-2-acetic acid” (1977).

Experiments:
Oryctolagus cuniculus = assay: Antiinflammatory activity in rabbit assessed as inhibition of edema at 200 ug per site by reversed passive arthus test; type: functional
Rattus norvegicus = assay: Antiinflammatory activity in rat assessed as inhibition of carrageenan-induced paw edema at 150 mg/kg; type: functional

| Compound | inhibition (INH) (Oryctolagus cuniculus) | inhibition in vivo at 150 mg/kg (Rattus norvegicus) |
| --- | --- | --- |
| COc1ccc2cc([C@H](C)C(=O)O)ccc2c1 [NAPROXEN] | 55% |  |
| CC(C)Cc1ccc(C(C)C(=O)O)cc1 (stereo not given) [IBUPROFEN] | 54% | 56% |
| COc1ccc2c(c1)c(CC(=O)O)c(C)n2C(=O)c1ccc(Cl)cc1 [INDOMETHACIN] | 57% |  |
| CC(C(=O)O)c1ccc2c(c1)C[C@H]1CCCC[C@@H]21 (stereo not given in full) | 55% | 63% |
| CC(C(=O)O)c1ccc2c(c1)Cc1ccccc1-2 (stereo not given) [CICLOPROFEN] | 36% | 66% |
| CCCCC1C(=O)N(c2ccccc2)N(c2ccccc2)C1=O [PHENYLBUTAZONE] | 44% | 59% |
